For 13 compounds, IC50 results are on record in patent US20240010684A1, “MASP INHIBITORY COMPOUNDS AND USES THEREOF” (BAYER AKTIENGESELLSCHAFT, priority 2020, published 2024).

Each structure is given as a SMILES string. Where a SMILES comes first, the peptide text is derived from it. Bridges are numbered along the chain shown (N, C = ends). [ ]: non-standard residue; d: D form. Oic = O=C(O)[C@@H]1C[C@@H]2CCCC[C@@H]2N1; tBuAla = CC(C)(C)C[C@H](N)C(=O)O; Pen = CC(C)(S)[C@H](N)C(=O)O; NMeC = CN[C@@H](CS)C(=O)O; Abu = CC[C@H](N)C(=O)O; Dap = NC[C@H](N)C(=O)O; PEG2 = NCCOCCOCCC(=O)O; Ahx = NCCCCCC(=O)O

The target in one assay is human MASP2 (Homo sapiens (Human), UniProt O00187). The experiment in a line: Biochemical human MASP2 assay (FRET substrate). The conditions noted are these: Average IC50; recombinant human MASP2; read-out: human MASP2 IC50. The source says:
The MASP1 or MASP2 expression vectors were transfected into the HEK293 (ATCC No. CRL-1573) cell line using Lipofectamine LTX® Reagent (Thermo-Fischer), as described by the manufacturer. The mature form of the recombinant human MASP1 and M[…] were secreted into the culture medium. The MASP1 and M[…] were purified from the conditioned media by affinity chromatography on Ni-NTA Superflow resin (Qiagen) as described by the manufacturer. 2.3 Biochemical Human MASP2 Assay […] The enzymatic reaction was initiated by addition of 25 μl of 60 μM solution of the FRET substrate DABCYL-[…]; […] The microtiter plate was incubated for 60-120 min at the temperature of 32 C. The increase of fluorescence intensity was measured in appropriate fluorescence plate reader (e.g. TECAN Ultra) using excitation wavelength of 340 nm and emission wavelength of 490 nm. IC50 values were calculated from percentage of inhibition of human MASP2 activity as a function of test compound concentration.

The target of the next assay is human MASP1 (Homo sapiens (Human), UniProt P48740). The experiment in a line: Biochemical human MASP1 assay (FRET substrate). The conditions noted are these: Average IC50; recombinant human MASP1; read-out: human MASP1 IC50. An excerpt:
A truncated cDNA sequence of human MASP1 encoding the fragment corresponding to the amino acids 297-699 with a C-terminal His Tag and N-terminal Ig-kappa secretion signal (SEQ ID No: 2) was subcloned into the mammalian expression vector pcDNA3.1 (Invitrogen).
The MASP1 or MASP2 expression vectors were transfected into the HEK293 (ATCC No. CRL-1573) cell line using Lipofectamine LTX® Reagent (Thermo-Fischer), as described by the manufacturer. The mature form of the recombinant human MASP1 and MASP2 proteases were secreted into the culture medium. The MASP1 and MASP2 proteins were purified from the conditioned media by affinity chromatography on Ni-NTA Superflow resin (Qiagen) as described by the manufacturer.
2.2 Biochemical Human MASP1 Assay
Recombinant human MASP1 enzyme produced in the HEK 293 cells was diluted in the reaction buffer (50 mM HEPES pH 8,0; 100 mM NaCl; 0,01% CHAPS; 0.5 mM Gluthathione) to the concentration of 20 nM and 25 μl was transferred into each single well of 384-well white microtiter plate (Greiner Bio One 781075). 1 μl of the inhibitor compound solution (dissolved in DMSO, at the corresponding concentration) or pure DMSO as a control was added to the same wells. The enzymatic reaction was initiated by addition of 25 μl of 20 μM solution of the FRET substrate ABZ-[…]-Lys (Dnp)-NH2; (ABZ-2-aminobenzoyl; DNP 2,4-dinitrophenyl; custom synthesis by Jerini Peptide Technologies, Berlin) in the reaction buffer. The microtiter plate was incubated for 60-120 min at the temperature of 32 C. The increase of fluorescence intensity was measured in appropriate fluorescence plate reader (e.g. TECAN Ultra) using excitation wavelength of 320 nm and emission wavelength of 420 nm. IC50 values were calculated from percentage of inhibition of human MASP1 activity as a function of test compound concentration.

human MASP2, sequence (O00187 other isoform, or with tags, fused parts or gaps): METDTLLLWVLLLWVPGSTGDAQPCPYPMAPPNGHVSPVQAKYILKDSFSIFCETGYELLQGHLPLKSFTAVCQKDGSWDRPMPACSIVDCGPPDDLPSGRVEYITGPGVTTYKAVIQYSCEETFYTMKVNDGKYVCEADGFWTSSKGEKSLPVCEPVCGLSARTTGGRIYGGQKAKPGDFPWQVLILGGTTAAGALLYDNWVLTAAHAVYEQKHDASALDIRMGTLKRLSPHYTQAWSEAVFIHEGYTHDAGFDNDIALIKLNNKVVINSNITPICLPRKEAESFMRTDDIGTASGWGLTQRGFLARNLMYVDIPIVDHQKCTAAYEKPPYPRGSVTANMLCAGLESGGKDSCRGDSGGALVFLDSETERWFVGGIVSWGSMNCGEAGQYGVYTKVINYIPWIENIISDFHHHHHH
human MASP1, sequence (P48740 other isoform, or with tags, fused parts or gaps): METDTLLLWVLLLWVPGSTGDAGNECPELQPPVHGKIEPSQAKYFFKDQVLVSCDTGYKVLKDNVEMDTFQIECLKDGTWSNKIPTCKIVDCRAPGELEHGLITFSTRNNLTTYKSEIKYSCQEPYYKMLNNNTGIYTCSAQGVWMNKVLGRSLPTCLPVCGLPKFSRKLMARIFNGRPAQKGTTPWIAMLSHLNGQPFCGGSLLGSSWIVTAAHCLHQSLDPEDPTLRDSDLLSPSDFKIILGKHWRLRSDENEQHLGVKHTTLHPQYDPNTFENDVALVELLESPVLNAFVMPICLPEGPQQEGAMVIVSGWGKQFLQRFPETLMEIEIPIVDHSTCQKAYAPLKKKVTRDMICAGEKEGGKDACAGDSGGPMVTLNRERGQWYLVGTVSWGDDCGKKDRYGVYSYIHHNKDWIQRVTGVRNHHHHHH

A word on the IC50: it is the concentration at which inhibition is half-maximal. Turning to `CC[C@H](C)[C@@H]1NC(=O)CNC(=O)CNC(=O)[C@@H](C)NC(=O)[C@H](CC(=O)O)NC(=O)[C@@H]2CCCN2C(=O)[C@H]([C@@H](C)CC)NC(=O)[C@@H]2CSSC[C@H](NC1=O)C(=O)N[C@@H](CO)C(=O)N[C@@H](CCCNC(=N)N)C(=O)N[C@@H](CO)C(=O)N[C@@H](CC(C)C)C(=O)N1CCC[C@H]1C(=O)N1CCC[C@H]1C(=O)N[C@@H]([C@@H](C)CC)C(=O)N2` [Example 19] (cyclo(CIPD[dA]GGICSRSLPPI); disulfide 1-9), the figures for the IC50 at human MASP2 and on human MASP1 were 210 nM and 49 nM, respectively.

Regarding `CC[C@H](C)[C@@H]1NC(=O)CNC(=O)CNC(=O)[C@@H](N)CNC(=O)[C@H](CC(=O)O)NC(=O)[C@@H]2CCCN2C(=O)[C@H]([C@@H](C)CC)NC(=O)[C@@H]2CSSC[C@H](NC1=O)C(=O)N[C@@H](CO)C(=O)N[C@@H](CCCNC(=N)N)C(=O)N[C@@H](CO)C(=O)N[C@@H](CC(C)C)C(=O)N1CCC[C@H]1C(=O)N1CCC[C@H]1C(=O)N[C@@H]([C@@H](C)CC)C(=O)N2` [Example 20] (H-[Dap]GGICSRSLPPICIPD; lactam 1-C; disulfide 5-13), the IC50 on human MASP2 is 110 nM; at human MASP1, 55 nM.

In the case of `CC[C@H](C)[C@@H]1NC(=O)CNC(=O)[C@H](CO)NC(=O)CNC(=O)[C@H](CO)NC(=O)[C@H](CC(=O)O)NC(=O)[C@@H]2CCCN2C(=O)[C@H]([C@@H](C)CC)NC(=O)[C@@H]2CSSC[C@H](NC1=O)C(=O)N[C@@H](CO)C(=O)N[C@@H](CCCNC(=N)N)C(=O)N[C@@H](CO)C(=O)N[C@@H](CC(C)C)C(=O)N1CCC[C@H]1C(=O)N1CCC[C@H]1C(=O)N[C@@H]([C@@H](C)CC)C(=O)N2` [Example 21] (cyclo(CIPDSGSGICSRSLPPI); disulfide 1-10), the 50% inhibitory concentration (IC50) at human MASP2 was 120 nM; on human MASP1, 170 nM.

As for `CC[C@H](C)[C@@H]1NC(=O)CNC(=O)[C@@H](N)CCCCNC(=O)[C@H](CC(=O)O)NC(=O)[C@@H]2CCCN2C(=O)[C@H]([C@@H](C)CC)NC(=O)[C@@H]2CSSC[C@H](NC1=O)C(=O)N[C@@H](CO)C(=O)N[C@@H](CCCNC(=N)N)C(=O)N[C@@H](CO)C(=O)N[C@@H](CC(C)C)C(=O)N1CCC[C@H]1C(=O)N1CCC[C@H]1C(=O)N[C@@H]([C@@H](C)CC)C(=O)N2` [Example 22] (H-KGICSRSLPPICIPD; lactam 1-C; disulfide 4-12), the results for the IC50 at human MASP2 and on human MASP1 were 91 nM and 190 nM, respectively.

For the compound `CC[C@H](C)[C@@H]1NC(=O)CNC(=O)CCOCCOCCNC(=O)[C@H](CC(=O)O)NC(=O)[C@@H]2CCCN2C(=O)[C@H]([C@@H](C)CC)NC(=O)[C@@H]2CSSC[C@H](NC1=O)C(=O)N[C@@H](CO)C(=O)N[C@@H](CCCNC(=N)N)C(=O)N[C@@H](CO)C(=O)N[C@@H](CC(C)C)C(=O)N1CCC[C@H]1C(=O)N1CCC[C@H]1C(=O)N[C@@H]([C@@H](C)CC)C(=O)N2` [Example 24] (cyclo(CIPD[PEG2]GICSRSLPPI); disulfide 1-8), the IC50 at human MASP2 was 210 nM; on human MASP1 it was 110 nM.

Take `CC[C@H](C)[C@@H]1NC(=O)[C@H](C)NC(=O)CCCCCNC(=O)[C@@H]2CCCN2C(=O)[C@H]([C@@H](C)CC)NC(=O)[C@@H]2CSSC[C@H](NC1=O)C(=O)N[C@@H](CO)C(=O)N[C@@H](CCCNC(=N)N)C(=O)N[C@@H](CO)C(=O)N[C@@H](CC(C)C)C(=O)N1CCC[C@H]1C(=O)N1[C@@H](C[C@@H]3CCCC[C@@H]31)C(=O)N[C@@H]([C@@H](C)CC)C(=O)N2` [Example 25] (cyclo(AICSRSLP[Oic]ICIP[Ahx]); disulfide 3-11): the 50% inhibitory concentration (IC50) at human MASP2 worked out at 610 nM; on human MASP1 it was 60 nM.

For `CC[C@H](C)[C@@H]1NC(=O)[C@H](C)NC(=O)CNC(=O)[C@H](C)NC(=O)[C@H](CC(=O)O)NC(=O)[C@@H]2CCCN2C(=O)[C@H]([C@@H](C)CC)NC(=O)[C@H]2NC(=O)[C@H]([C@@H](C)CC)NC(=O)[C@@H]3CCCN3C(=O)[C@@H]3CCCN3C(=O)[C@H](CC(C)(C)C)NC(=O)[C@H](CO)NC(=O)[C@H](CCCNC(=N)N)NC(=O)[C@H](CO)NC(=O)[C@H](CSSC2(C)C)NC1=O` [Example 26] (cyclo(AGAICSRS[tBuAla]PPI[Pen]IPD); disulfide 5-13), the figures for the concentration for half-maximal inhibition (IC50) on human MASP2 and on human MASP1 were 170 nM and 12 nM, respectively.

Consider `CC[C@H](C)[C@@H]1NC(=O)[C@H](C)NC(=O)CCCCCNC(=O)[C@H](CC(=O)O)NC(=O)[C@@H]2CCCN2C(=O)[C@H]([C@@H](C)CC)NC(=O)[C@H]2NC(=O)[C@H]([C@@H](C)CC)NC(=O)[C@@H]3CCCN3C(=O)[C@@H]3CCCN3C(=O)[C@H](CC(C)(C)C)NC(=O)[C@H](CO)NC(=O)[C@H](CCCNC(=N)N)NC(=O)[C@H](CO)NC(=O)[C@H](CSSC2(C)C)NC1=O` [Example 27] (cyclo(AICSRS[tBuAla]PPI[Pen]IPD[Ahx]); disulfide 3-11), for which the results for the half-inhibitory concentration (IC50) on human MASP2 and at human MASP1 were 37.5 nM and 9.1 nM, respectively.

`CC[C@H](C)[C@@H]1NC(=O)CNC(=O)CCCCCNC(=O)[C@H](CC(=O)O)NC(=O)[C@@H]2CCCN2C(=O)[C@H]([C@@H](C)CC)NC(=O)[C@@H]2CSSC[C@H](NC1=O)C(=O)N[C@@H](CO)C(=O)N[C@@H](CCCNC(=N)N)C(=O)N[C@@H](CO)C(=O)N[C@@H](CC(C)(C)C)C(=O)N1CCC[C@H]1C(=O)N1CCC[C@H]1C(=O)N[C@@H]([C@@H](C)CC)C(=O)N2C` [Example 30] (cyclo([Ahx]GICSRS[tBuAla]PPI[NMeC]IPD); disulfide 4-12): the half-inhibitory concentration (IC50) at human MASP2 worked out at 65 nM; on human MASP1 it was 16 nM.

Take `CC[C@H](C)[C@@H]1NC(=O)[C@H](C)NC(=O)CNC(=O)[C@H](C)NC(=O)[C@H](CC(=O)O)NC(=O)[C@@H]2CCCN2C(=O)[C@H]([C@@H](C)CC)NC(=O)[C@@H]2CSSC[C@H](NC1=O)C(=O)N[C@@H](CO)C(=O)N[C@@H](CCCNC(=N)N)C(=O)N[C@@H](CO)C(=O)N[C@@H](CC(C)(C)C)C(=O)N1CCC[C@H]1C(=O)N1CCC[C@H]1C(=O)N[C@@H]([C@@H](C)CC)C(=O)N2C` [Example 31] (cyclo(AGAICSRS[tBuAla]PPI[NMeC]IPD); disulfide 5-13): the results for the half-inhibitory concentration (IC50) at human MASP2 and at human MASP1 were 130 nM and 16 nM, respectively.

On to `CC[C@@H]1NC(=O)CCCCCNC(=O)[C@H](CC(=O)O)NC(=O)[C@@H]2CCCN2C(=O)[C@H]([C@@H](C)CC)NC(=O)[C@@H]2CSSC[C@H](NC(=O)[C@H]([C@@H](C)CC)NC1=O)C(=O)N[C@@H](CO)C(=O)N[C@@H](CCCNC(=N)N)C(=O)N[C@@H](CO)C(=O)N[C@@H](CC(C)(C)C)C(=O)N1CCC[C@H]1C(=O)N1CCC[C@H]1C(=O)N[C@@H]([C@@H](C)CC)C(=O)N2C` [Example 33] (cyclo([Abu]ICSRS[tBuAla]PPI[NMeC]IPD[Ahx]); disulfide 3-11), for which the IC50 came to 62 nM on human MASP2 and 28 nM on human MASP1.

`CC[C@H](C)[C@@H]1NC(=O)[C@H](C)NC(=O)CCOCCOCCNC(=O)[C@H](CC(=O)O)NC(=O)[C@@H]2CCCN2C(=O)[C@H]([C@@H](C)CC)NC(=O)[C@H]2NC(=O)[C@H]([C@@H](C)CC)NC(=O)[C@@H]3CCCN3C(=O)[C@@H]3CCCN3C(=O)[C@H](CC(C)(C)C)NC(=O)[C@H](CO)NC(=O)[C@H](CCCNC(=N)N)NC(=O)[C@H](CO)NC(=O)[C@H](CSSC2(C)C)NC1=O` [Example 34] (cyclo(AICSRS[tBuAla]PPI[Pen]IPD[PEG2]); disulfide 3-11): the concentration for half-maximal inhibition (IC50) on human MASP2 is 98 nM; at human MASP1, 11 nM.

In the case of `CC[C@@H]1NC(=O)CCCCCNC(=O)[C@H](CC(=O)O)NC(=O)[C@@H]2CCCN2C(=O)[C@H]([C@@H](C)CC)NC(=O)[C@H]2NC(=O)[C@H]([C@@H](C)CC)NC(=O)[C@@H]3CCCN3C(=O)[C@@H]3CCCN3C(=O)[C@H](CC(C)(C)C)NC(=O)[C@H](CO)NC(=O)[C@H](CCCNC(=N)N)NC(=O)[C@H](CO)NC(=O)[C@H](CSSC2(C)C)NC(=O)[C@H]([C@@H](C)CC)NC1=O` [Example 38] (cyclo([Abu]ICSRS[tBuAla]PPI[Pen]IPD[Ahx]); disulfide 3-11), the half-inhibitory concentration (IC50) on human MASP2 came to 44 nM; on human MASP1, 20 nM.
